The kinase profiling compilation of Christmann-Franck et al. (2016)

Columns and labels:
Assay in all cases: KINOMEscan competition binding
Conditions in all cases: compound 10.0 µM
[1] = target: MAPK15 (human) (UniProt Q8TD08)
[2] = target: PLK1 (human) (UniProt P53350)
[3] = target: AURKC (human) (UniProt Q9UQB9)
[4] = target: CSNK1D (human) (UniProt P48730)
[5] = target: RPS6KA1 KD1 (human) (UniProt Q15418)
[6] = target: PRKG1 (human) (UniProt Q13976)
[7] = target: BTK (human) (UniProt Q06187)
[8] = target: PRKACA (human) (UniProt P17612)
[9] = target: FER (human) (UniProt P16591)
[10] = target: STK17B (human) (UniProt O94768)
[11] = target: TESK1 (human) (UniProt Q15569)
[12] = target: ACVR1 (human) (UniProt Q04771)
[13] = target: DAPK3 (human) (UniProt O43293)
[14] = target: SRPK3 (human) (UniProt Q9UPE1)
[15] = target: RPS6KA1 KD2 (human) (UniProt Q15418)
[16] = target: STK25 (human) (UniProt O00506)
Chain of STK25 (human) (O00506 whole entry, looked up): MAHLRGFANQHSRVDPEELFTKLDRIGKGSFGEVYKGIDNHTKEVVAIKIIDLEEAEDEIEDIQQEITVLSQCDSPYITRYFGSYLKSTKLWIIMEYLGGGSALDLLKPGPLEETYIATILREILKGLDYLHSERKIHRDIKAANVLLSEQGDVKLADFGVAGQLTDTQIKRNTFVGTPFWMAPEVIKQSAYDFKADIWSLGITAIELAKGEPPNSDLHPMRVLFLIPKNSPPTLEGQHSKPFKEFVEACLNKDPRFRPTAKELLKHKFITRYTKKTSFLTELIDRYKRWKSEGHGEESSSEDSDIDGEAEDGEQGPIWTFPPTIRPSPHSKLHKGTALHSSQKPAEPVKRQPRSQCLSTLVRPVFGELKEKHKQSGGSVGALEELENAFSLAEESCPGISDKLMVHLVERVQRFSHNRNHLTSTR

[17] = system: KIT (human), P10721 [V559D/V654A]
[18] = target: CSNK1G3 (human) (UniProt Q9Y6M4)
[19] = target: PAK6 (human) (UniProt Q9NQU5)
[20] = target: CAMKK1 (human) (UniProt Q8N5S9)
[21] = target: RPS6KA3 KD1 (human) (UniProt P51812)
[22] = target: PIK3CG (human) (UniProt P48736)
[23] = target: GSK3B (human) (UniProt P49841)
[24] = target: PRKD1 (human) (UniProt Q15139)
[25] = target: NEK7 (human) (UniProt Q8TDX7)
[26] = target: RIPK2 (human) (UniProt O43353)
[27] = target: DCLK3 (human) (UniProt Q9C098)
[28] = target: FGR (human) (UniProt P09769)
Chain of FGR (human) (P09769 whole entry, looked up): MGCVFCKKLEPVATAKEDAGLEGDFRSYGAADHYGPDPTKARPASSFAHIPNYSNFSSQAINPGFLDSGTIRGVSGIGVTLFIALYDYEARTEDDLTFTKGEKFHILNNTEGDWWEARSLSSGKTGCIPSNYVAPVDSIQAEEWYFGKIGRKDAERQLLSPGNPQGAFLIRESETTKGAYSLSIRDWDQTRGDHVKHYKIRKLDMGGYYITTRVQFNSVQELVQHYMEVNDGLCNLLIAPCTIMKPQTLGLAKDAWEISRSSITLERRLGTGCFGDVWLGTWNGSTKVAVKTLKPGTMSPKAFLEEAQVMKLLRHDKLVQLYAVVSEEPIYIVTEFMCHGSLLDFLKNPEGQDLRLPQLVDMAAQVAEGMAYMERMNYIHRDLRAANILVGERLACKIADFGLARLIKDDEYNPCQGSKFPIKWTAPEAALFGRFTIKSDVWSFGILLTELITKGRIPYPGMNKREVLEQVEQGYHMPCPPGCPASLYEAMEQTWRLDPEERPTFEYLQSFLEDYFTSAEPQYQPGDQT

[29] = target: SIK2 (human) (UniProt Q9H0K1)
[30] = target: MAPK8 (human) (UniProt P45983)
[31] = target: CAMKK2 (human) (UniProt Q96RR4)
[32] = target: TNK2 (human) (UniProt Q07912)
[33] = target: PRKAA1 (human) (UniProt Q13131)
[34] = target: BMPR2 (human) (UniProt Q13873)
Chain of BMPR2 (human) (Q13873 whole entry, looked up): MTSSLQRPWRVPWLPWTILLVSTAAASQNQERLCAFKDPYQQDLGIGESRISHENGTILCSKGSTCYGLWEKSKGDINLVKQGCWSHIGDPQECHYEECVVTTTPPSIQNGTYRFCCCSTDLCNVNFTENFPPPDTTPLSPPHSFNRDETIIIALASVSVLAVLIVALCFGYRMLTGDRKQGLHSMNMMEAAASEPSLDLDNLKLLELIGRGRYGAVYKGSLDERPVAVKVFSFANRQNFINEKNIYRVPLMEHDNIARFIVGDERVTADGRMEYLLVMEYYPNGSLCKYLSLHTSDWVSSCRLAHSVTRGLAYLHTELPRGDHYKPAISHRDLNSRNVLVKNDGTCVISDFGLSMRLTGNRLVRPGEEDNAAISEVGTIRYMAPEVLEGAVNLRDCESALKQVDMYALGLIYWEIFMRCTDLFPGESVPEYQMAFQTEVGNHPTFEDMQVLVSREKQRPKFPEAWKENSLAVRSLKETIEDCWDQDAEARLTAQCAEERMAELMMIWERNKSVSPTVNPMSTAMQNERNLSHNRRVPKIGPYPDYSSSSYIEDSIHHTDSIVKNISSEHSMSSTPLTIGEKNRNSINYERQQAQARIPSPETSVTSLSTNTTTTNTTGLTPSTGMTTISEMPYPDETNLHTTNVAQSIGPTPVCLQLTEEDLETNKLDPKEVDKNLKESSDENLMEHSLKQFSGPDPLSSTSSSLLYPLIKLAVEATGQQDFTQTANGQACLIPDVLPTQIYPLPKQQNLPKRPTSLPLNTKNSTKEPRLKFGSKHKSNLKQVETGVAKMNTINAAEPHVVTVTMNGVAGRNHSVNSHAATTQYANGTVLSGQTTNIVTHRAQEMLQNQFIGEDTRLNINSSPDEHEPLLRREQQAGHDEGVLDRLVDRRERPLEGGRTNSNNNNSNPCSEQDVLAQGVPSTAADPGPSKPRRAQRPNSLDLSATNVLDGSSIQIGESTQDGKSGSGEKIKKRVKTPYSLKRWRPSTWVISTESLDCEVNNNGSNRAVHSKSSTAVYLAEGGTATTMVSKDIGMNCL

[35] = target: MYLK4 (human) (UniProt Q86YV6)
Chain of MYLK4 (human) (Q86YV6 whole entry, looked up): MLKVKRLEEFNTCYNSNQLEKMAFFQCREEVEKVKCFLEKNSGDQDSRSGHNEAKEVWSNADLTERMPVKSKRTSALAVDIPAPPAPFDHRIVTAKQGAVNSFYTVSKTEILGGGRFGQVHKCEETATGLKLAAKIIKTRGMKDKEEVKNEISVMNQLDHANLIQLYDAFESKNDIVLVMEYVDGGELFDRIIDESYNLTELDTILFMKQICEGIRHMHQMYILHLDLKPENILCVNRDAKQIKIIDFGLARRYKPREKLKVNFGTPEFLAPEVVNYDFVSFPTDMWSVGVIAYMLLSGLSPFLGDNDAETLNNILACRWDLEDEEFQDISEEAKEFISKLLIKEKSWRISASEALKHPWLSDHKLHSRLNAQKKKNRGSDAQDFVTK

[36] = target: ACVR2A (human) (UniProt P27037)
Chain of ACVR2A (human) (P27037 whole entry, looked up): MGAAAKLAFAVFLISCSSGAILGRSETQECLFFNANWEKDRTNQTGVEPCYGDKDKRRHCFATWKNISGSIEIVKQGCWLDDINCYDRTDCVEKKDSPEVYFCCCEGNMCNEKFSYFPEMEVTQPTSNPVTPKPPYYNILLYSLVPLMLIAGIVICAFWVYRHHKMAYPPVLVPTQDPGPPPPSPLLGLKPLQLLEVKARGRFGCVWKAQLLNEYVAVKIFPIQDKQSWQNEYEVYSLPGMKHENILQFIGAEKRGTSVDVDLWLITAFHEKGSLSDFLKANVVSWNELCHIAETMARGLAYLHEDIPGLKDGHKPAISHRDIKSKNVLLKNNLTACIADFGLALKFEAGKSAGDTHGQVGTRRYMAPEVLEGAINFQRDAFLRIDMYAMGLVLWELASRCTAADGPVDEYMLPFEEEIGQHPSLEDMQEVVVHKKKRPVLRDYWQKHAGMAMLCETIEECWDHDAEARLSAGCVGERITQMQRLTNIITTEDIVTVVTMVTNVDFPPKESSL

[37] = target: STK24 (human) (UniProt Q9Y6E0)
Chain of STK24 (human) (Q9Y6E0 whole entry, looked up): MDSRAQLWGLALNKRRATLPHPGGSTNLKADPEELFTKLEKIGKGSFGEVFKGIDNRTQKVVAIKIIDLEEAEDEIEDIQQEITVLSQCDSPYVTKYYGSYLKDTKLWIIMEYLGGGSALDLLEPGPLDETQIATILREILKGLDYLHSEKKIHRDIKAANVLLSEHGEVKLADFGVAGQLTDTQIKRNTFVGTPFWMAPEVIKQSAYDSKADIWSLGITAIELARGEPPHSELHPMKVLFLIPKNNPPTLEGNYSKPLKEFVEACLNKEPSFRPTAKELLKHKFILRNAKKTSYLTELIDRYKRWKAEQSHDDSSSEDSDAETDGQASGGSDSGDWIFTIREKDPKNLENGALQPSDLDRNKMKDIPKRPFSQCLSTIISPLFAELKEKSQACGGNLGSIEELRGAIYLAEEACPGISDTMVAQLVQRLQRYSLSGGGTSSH

[38] = target: LYN (human) (UniProt P07948)
Chain of LYN (human) (P07948 whole entry, looked up): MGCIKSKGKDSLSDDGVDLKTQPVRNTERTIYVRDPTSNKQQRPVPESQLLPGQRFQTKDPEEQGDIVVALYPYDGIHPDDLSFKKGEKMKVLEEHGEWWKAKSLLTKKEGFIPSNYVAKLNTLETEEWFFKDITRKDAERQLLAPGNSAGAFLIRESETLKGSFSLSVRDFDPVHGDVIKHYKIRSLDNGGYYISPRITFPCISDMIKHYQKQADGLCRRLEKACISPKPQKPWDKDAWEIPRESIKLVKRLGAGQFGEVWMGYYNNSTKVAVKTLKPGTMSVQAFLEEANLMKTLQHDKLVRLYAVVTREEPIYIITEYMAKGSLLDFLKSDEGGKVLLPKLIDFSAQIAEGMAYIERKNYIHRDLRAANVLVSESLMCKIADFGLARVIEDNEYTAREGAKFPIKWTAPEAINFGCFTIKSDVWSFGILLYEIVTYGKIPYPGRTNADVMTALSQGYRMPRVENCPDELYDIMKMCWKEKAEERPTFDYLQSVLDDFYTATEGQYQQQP

[39] = target: MAP3K9 (human) (UniProt P80192)
[40] = target: MARK4 (human) (UniProt Q96L34)
[41] = target: STK38L (human) (UniProt Q9Y2H1)
Chain of STK38L (human) (Q9Y2H1 whole entry, looked up): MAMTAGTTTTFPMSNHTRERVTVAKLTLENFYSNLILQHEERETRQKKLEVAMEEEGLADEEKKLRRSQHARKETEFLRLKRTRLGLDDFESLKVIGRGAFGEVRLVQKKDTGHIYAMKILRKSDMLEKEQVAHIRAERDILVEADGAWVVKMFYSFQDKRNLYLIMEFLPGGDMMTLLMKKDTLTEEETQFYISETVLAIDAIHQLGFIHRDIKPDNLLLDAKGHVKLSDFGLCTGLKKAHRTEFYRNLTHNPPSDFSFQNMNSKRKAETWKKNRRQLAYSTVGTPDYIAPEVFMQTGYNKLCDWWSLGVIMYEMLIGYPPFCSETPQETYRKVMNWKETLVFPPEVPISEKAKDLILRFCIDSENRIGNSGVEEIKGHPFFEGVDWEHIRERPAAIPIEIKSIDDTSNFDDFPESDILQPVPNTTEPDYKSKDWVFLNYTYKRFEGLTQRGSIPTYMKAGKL

[42] = target: BMX (human) (UniProt P51813)

Chain of CSNK1D (human) (P48730 whole entry, looked up): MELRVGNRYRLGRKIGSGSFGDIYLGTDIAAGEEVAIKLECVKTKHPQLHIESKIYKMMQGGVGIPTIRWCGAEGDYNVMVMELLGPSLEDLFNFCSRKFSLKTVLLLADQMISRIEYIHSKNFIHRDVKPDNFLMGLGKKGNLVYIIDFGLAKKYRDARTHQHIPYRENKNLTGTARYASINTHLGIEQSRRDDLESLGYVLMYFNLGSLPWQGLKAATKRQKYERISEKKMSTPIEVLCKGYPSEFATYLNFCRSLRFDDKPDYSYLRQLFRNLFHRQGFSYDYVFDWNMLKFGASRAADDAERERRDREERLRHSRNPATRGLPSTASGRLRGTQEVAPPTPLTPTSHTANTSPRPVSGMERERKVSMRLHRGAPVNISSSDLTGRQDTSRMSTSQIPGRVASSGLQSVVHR

COc1cc(N2CCC(N3CCN(C)CC3)CC2)ccc1Nc1ncc(Cl)c(Nc2ccccc2S(=O)(=O)C(C)C)n1
kinase still bound, per cent of control [1]: 0.25% | kinase still bound, per cent of control [2]: 0.1% | kinase still bound, per cent of control [3]: 0.1% | kinase still bound, per cent of control [4]: 40% | kinase still bound, per cent of control [5]: 0.25% | kinase still bound, per cent of control [6]: 1.3% | kinase still bound, per cent of control [7]: 0% | kinase still bound, per cent of control [8]: 11% | kinase still bound, per cent of control [9]: 0.05% | kinase still bound, per cent of control [10]: 40% | kinase still bound, per cent of control [11]: 40% | kinase still bound, per cent of control [12]: 0% | kinase still bound, per cent of control [13]: 4.5% | kinase still bound, per cent of control [14]: 1.7% | kinase still bound, per cent of control [15]: 10% | kinase still bound, per cent of control [16]: 40% | kinase still bound, per cent of control [17]: 7.4% | kinase still bound, per cent of control [18]: 40% | kinase still bound, per cent of control [19]: 13% | kinase still bound, per cent of control [20]: 0.2% | kinase still bound, per cent of control [21]: 0.55% | kinase still bound, per cent of control [22]: 40% | kinase still bound, per cent of control [23]: 40% | kinase still bound, per cent of control [24]: 1% | kinase still bound, per cent of control [25]: 3.8% | kinase still bound, per cent of control [26]: 40% | kinase still bound, per cent of control [27]: 0% | kinase still bound, per cent of control [28]: 2.8% | kinase still bound, per cent of control [29]: 7.5% | kinase still bound, per cent of control [30]: 5.2% | kinase still bound, per cent of control [31]: 0.1% | kinase still bound, per cent of control [32]: 0% | kinase still bound, per cent of control [33]: 0.1% | kinase still bound, per cent of control [34]: 40% | kinase still bound, per cent of control [35]: 40% | kinase still bound, per cent of control [36]: 12% | kinase still bound, per cent of control [37]: 24% | kinase still bound, per cent of control [38]: 5% | kinase still bound, per cent of control [39]: 0.35% | kinase still bound, per cent of control [40]: 0% | kinase still bound, per cent of control [41]: 7.3%

CCOc1cc(N2CCC(N3CCCCC3)CC2)ccc1Nc1nc(Nc2ccccc2S(=O)(=O)C(C)C)c2cn[nH]c2n1
kinase still bound, per cent of control [1]: 100% | kinase still bound, per cent of control [2]: 47% | kinase still bound, per cent of control [3]: 100% | kinase still bound, per cent of control [4]: 92% | kinase still bound, per cent of control [42]: 100% | kinase still bound, per cent of control [5]: 1.8% | kinase still bound, per cent of control [6]: 100% | kinase still bound, per cent of control [7]: 32% | kinase still bound, per cent of control [8]: 100% | kinase still bound, per cent of control [9]: 9.1% | kinase still bound, per cent of control [10]: 100% | kinase still bound, per cent of control [11]: 100% | kinase still bound, per cent of control [12]: 60% | kinase still bound, per cent of control [13]: 83% | kinase still bound, per cent of control [14]: 100% | kinase still bound, per cent of control [15]: 14% | kinase still bound, per cent of control [16]: 95% | kinase still bound, per cent of control [17]: 100% | kinase still bound, per cent of control [18]: 50% | kinase still bound, per cent of control [19]: 100% | kinase still bound, per cent of control [20]: 46% | kinase still bound, per cent of control [21]: 2% | kinase still bound, per cent of control [22]: 100% | kinase still bound, per cent of control [23]: 84% | kinase still bound, per cent of control [24]: 73% | kinase still bound, per cent of control [25]: 100% | kinase still bound, per cent of control [26]: 100% | kinase still bound, per cent of control [27]: 100% | kinase still bound, per cent of control [28]: 82% | kinase still bound, per cent of control [29]: 85% | kinase still bound, per cent of control [30]: 4.3% | kinase still bound, per cent of control [31]: 46% | kinase still bound, per cent of control [32]: 3.4% | kinase still bound, per cent of control [33]: 51% | kinase still bound, per cent of control [34]: 85% | kinase still bound, per cent of control [35]: 100% | kinase still bound, per cent of control [36]: 100% | kinase still bound, per cent of control [37]: 82% | kinase still bound, per cent of control [38]: 100% | kinase still bound, per cent of control [39]: 94% | kinase still bound, per cent of control [40]: 71% | kinase still bound, per cent of control [41]: 100%

CCN1CCN(Cc2ccc(NC(=O)c3ccc(C)c(/C=C/c4cnc(Nc5cc(N6CCNCC6)nc(C)n5)cn4)c3)cc2C(F)(F)F)CC1
kinase still bound, per cent of control [1]: 100% | kinase still bound, per cent of control [2]: 100% | kinase still bound, per cent of control [3]: 45% | kinase still bound, per cent of control [4]: 95% | kinase still bound, per cent of control [42]: 12% | kinase still bound, per cent of control [5]: 100% | kinase still bound, per cent of control [6]: 100% | kinase still bound, per cent of control [7]: 0.2% | kinase still bound, per cent of control [8]: 26% | kinase still bound, per cent of control [9]: 78% | kinase still bound, per cent of control [10]: 2% | kinase still bound, per cent of control [11]: 23% | kinase still bound, per cent of control [12]: 100% | kinase still bound, per cent of control [13]: 91% | kinase still bound, per cent of control [14]: 82% | kinase still bound, per cent of control [15]: 13% | kinase still bound, per cent of control [16]: 35% | kinase still bound, per cent of control [17]: 3.7% | kinase still bound, per cent of control [18]: 100% | kinase still bound, per cent of control [19]: 91% | kinase still bound, per cent of control [20]: 98% | kinase still bound, per cent of control [21]: 43% | kinase still bound, per cent of control [22]: 100% | kinase still bound, per cent of control [23]: 100% | kinase still bound, per cent of control [24]: 90% | kinase still bound, per cent of control [25]: 100% | kinase still bound, per cent of control [26]: 5.4% | kinase still bound, per cent of control [27]: 87% | kinase still bound, per cent of control [28]: 4.5% | kinase still bound, per cent of control [29]: 61% | kinase still bound, per cent of control [30]: 24% | kinase still bound, per cent of control [31]: 95% | kinase still bound, per cent of control [32]: 32% | kinase still bound, per cent of control [33]: 18% | kinase still bound, per cent of control [34]: 100% | kinase still bound, per cent of control [35]: 100% | kinase still bound, per cent of control [36]: 100% | kinase still bound, per cent of control [37]: 30% | kinase still bound, per cent of control [38]: 1% | kinase still bound, per cent of control [39]: 21% | kinase still bound, per cent of control [40]: 100% | kinase still bound, per cent of control [41]: 84%

CCN1CCN(Cc2ccc(NC(=O)c3ccc(C)c(Oc4ccnc5[nH]ccc45)c3)cc2C(F)(F)F)CC1
kinase still bound, per cent of control [42]: 2.4% | kinase still bound, per cent of control [9]: 0.5% | kinase still bound, per cent of control [17]: 2.7% | kinase still bound, per cent of control [28]: 1.2% | kinase still bound, per cent of control [30]: 0% | kinase still bound, per cent of control [31]: 28% | kinase still bound, per cent of control [33]: 33% | kinase still bound, per cent of control [38]: 0.75% | kinase still bound, per cent of control [41]: 6.8%
